Data reported in patent publication US20230416225A1, “DIAMINOPYRIMIDINE CARBOXAMIDE INHIBITORS OF HPK1” (MERCK SHARP & DOHME LLC, priority 2020, published 2023).

Target: T1, Human HPK1, catalytic domain (Homo sapiens, UniProt Q92918)
T1 construct: purchased Carna
T1 sequence (Q92918 1-346): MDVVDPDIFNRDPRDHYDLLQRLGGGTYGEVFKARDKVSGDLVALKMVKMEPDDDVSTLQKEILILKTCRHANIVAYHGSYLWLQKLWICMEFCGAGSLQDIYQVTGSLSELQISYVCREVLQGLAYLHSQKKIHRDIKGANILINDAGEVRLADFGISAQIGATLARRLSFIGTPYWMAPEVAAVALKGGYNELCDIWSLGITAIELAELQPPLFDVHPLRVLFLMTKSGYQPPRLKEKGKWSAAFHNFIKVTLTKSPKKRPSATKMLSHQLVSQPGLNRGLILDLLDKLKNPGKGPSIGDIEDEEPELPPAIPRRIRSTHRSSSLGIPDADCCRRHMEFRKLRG
Test: HPK1-SLP76 TR-FRET assay
Format: biochemical
Conditions: 75 pM HPK1, 10 uM ATP, 10 nM SLP76, 30 min compound pre-incubation

IC50 [nM]	Compound
0.21	COc1cc2c(cc1Nc1ncc(C(N)=O)c(Nc3c(Cl)ccc(C)c3F)n1)CN(C)CC2 [Example 4-20, 4-[(6-chloro-2-fluoro-3-methylphenyl)amino]-2-[(6-methoxy-2-methyl-1,2,3,4-tetrahydroisoquinolin-7-yl)amino]pyrimidine-5-carboxamide]
0.45	COc1cc2c(cc1Nc1ncc(C(N)=O)c(Nc3c(F)cc(F)cc3Cl)n1)CN(C)CC2 [Example 4-21, 4-[(2-chloro-4,6-difluorophenyl)amino]-2-[(6-methoxy-2-methyl-1,2,3,4-tetrahydroisoquinolin-7-yl)amino]pyrimidine-5-carboxamide]
0.17	COc1cc2c(cc1Nc1ncc(C(N)=O)c(Nc3ccccc3C3CC3)n1)CN(C)CC2 [Example 4-26, 4-[(2-cyclopropylphenyl)amino]-2-[(6-methoxy-2-methyl-1,2,3,4-tetrahydroisoquinolin-7-yl)amino]pyrimidine-5-carboxamide]
0.08	CCc1ccccc1Nc1nc(Nc2cc3c(cc2OC)CCN(C)C3)ncc1C(N)=O [Example 4-27]
0.2	CN1CCc2cc(F)c(Nc3ncc(C(N)=O)c(Nc4c(F)cccc4C(F)(F)F)n3)cc2C1 [Example 4-29, 2-[(6-fluoro-2-methyl-1,2,3,4-tetrahydroisoquinolin-7-yl)amino]-4-{[2-fluoro-6-(trifluoromethyl)phenyl]amino} pyrimidine-5-carboxamide]
0.42	COc1cc2c(cc1Nc1ncc(C(N)=O)c(Nc3c(F)cc(Br)cc3F)n1)CN(C)CC2 [Example 4-30, 4-[(4-bromo-2,6-difluorophenyl)amino]-2-[(6-methoxy-2-methyl-1,2,3,4-tetrahydroisoquinolin-7-yl)amino]pyrimidine-5-carboxamide]
0.2	COc1cc2c(cc1Nc1ncc(C(N)=O)c(Nc3c(F)cccc3OC(F)F)n1)CN(C)CC2 [Example 4-31, 4-{[2-(difluoromethoxy)-6-fluorophenyl]amino}-2-1(6-methoxy-2-methyl-1,2,3,4-tetrahydroisoquinolin-7-yl)amino|pyrimidine-5-carboxamide]
1.13	CN1CCc2cc(F)c(Nc3ncc(C(N)=O)c(Nc4cccc5c4OC(C)(C)C5)n3)cc2C1 [Example 4-32, 4-[(2,2-dimethyl-2,3-dihydro-1-benzofuran-7-yl)amino]-2-[(6-fluoro-2-methyl-1,2,3,4-tetrahydroisoquinolin-7-yl)amino]pyrimidine-5-carboxamide]
0.44	COc1cc2c(cc1Nc1ncc(C(N)=O)c(Nc3c(C)cc(C#N)cc3F)n1)CN(C)CC2 [Example 4-33, 4-[(4-cyano-2-fluoro-6-methylphenyl)amino]-2-[(6-methoxy-2-methyl-1,2,3,4-tetrahydroisoquinolin-7-yl)amino]pyrimidine-5-carboxamide]
2.97	COc1cc2c(cc1Nc1ncc(C(N)=O)c(Nc3c(F)cccc3C(F)(F)F)n1)CN(CC(C)(C)O)CC2 [Example 5-1, 4-((2-Fluoro-6-(trifluoromethyl)phenyl)amino)-2-((2-(2-hydroxy-2-methylpropyl)-6-methoxy-1,2,3,4-tetrahydroisoquinolin-7-yl)amino)pyrimidine-5-carboxamide]
2.54	COc1cc2c(cc1Nc1ncc(C(N)=O)c(Nc3c(C)cccc3F)n1)CN(CC(C)(C)O)CC2 [Example 5-2]
0.07	COc1cc2c(cc1Nc1ncc(C(N)=O)c(Nc3cccc4c3CCNC4)n1)CN(C)CC2 [Example 7-4, 2-[(6-methoxy-2-methyl-1,2,3,4-tetrahydroisoquinolin-7-yl)amino]-4-[(1,2,3,4-tetrahydroisoquinolin-5-yl)amino]pyrimidine-5-carboxamide]
0.5	COc1cc2c(cc1Nc1ncc(C(N)=O)c(Nc3cccc4nn[nH]c34)n1)CN(C)CC2 [Example 7-5, 4-[(1H-benzotriazol-7-yl)amino]-2-[(6-methoxy-2-methyl-1,2,3,4-tetrahydroisoquinolin-7-yl)amino]pyrimidine-5-carboxamide]
0.03	COc1cc2c(cc1Nc1ncc(C(N)=O)c(Nc3cccc4c3OCC4)n1)CN(C)CC2 [Example 7-7, 4-[(2,3-dihydro-1-benzofuran-7-yl)amino]-2-[(6-methoxy-2-methyl-1,2,3,4-tetrahydroisoquinolin-7-yl)amino]pyrimidine-5-carboxamide]
0.19	COc1cc2c(cc1Nc1ncc(C(N)=O)c(Nc3cccc4c3OC(C)(C)C4)n1)CN(C)CC2 [Example 7-14, 4-[(2,2-dimethyl-2,3-dihydro-1-benzofuran-7-yl)amino]-2-[(6-methoxy-2-methyl-1,2,3,4-tetrahydroisoquinolin-7-yl)amino]pyrimidine-5-carboxamide]
0.29	COc1cc2c(cc1Nc1ncc(C(N)=O)c(Nc3cccc(F)c3)n1)CN(C)CC2 [Example 7-18, 4-[(3-fluorophenyl)amino]-2-[(6-methoxy-2-methyl-1,2,3,4-tetrahydroisoquinolin-7-yl)amino]pyrimidine-5-carboxamide]

The next lines start with the compound.

Compound	IC50 [nM]
Cc1cccc(F)c1Nc1nc(Nc2cnn(CC3CC3)c2)ncc1C(N)=O [Example 4-22, 2-{[1-(cyclopropylmethyl)-1H-pyrazol-4-yl]amino}-4-[(2-fluoro-6-methylphenyl)amino] pyrimidine-5-carboxamide]	384
Cc1cccc(F)c1Nc1nc(Nc2cnn(CC(C)(C)O)c2)ncc1C(N)=O [Example 4-23, 4-[(2-fluoro-6-methylphenyl)amino]-2-{[1-(2-hydroxy-2-methylpropyl)-1H-pyrazol-4-yl]amino}pyrimidine-5-carboxamide]	443
Cc1cccc(F)c1Nc1nc(Nc2cnn(CC(F)(F)F)c2)ncc1C(N)=O [Example 4-24, 4-[(2-fluoro-6-methylphenyl)amino]-2-{[1-(2,2,2-trifluoroethyl)-1H-pyrazol-4-yl]amino}pyrimidine-5-carboxamide]	594
Cc1cccc(F)c1Nc1nc(Nc2ccc(S(C)(=O)=O)cc2)ncc1C(N)=O [Example 4-25, 4-[(2-fluoro-6-methylphenyl)amino]-2-{[4-(methylsulfonyl)phenyl]amino} pyrimidine-5-carboxamide]	81.6
Cc1cccc(F)c1Nc1nc(Nc2c(C)n[nH]c2C)ncc1C(N)=O [Example 4-34, 2-[(3,5-dimethyl-1H-pyrazol-4-yl)amino]-4-[(2-fluoro-6-methylphenyl)amino] pyrimidine-5-carboxamide]	65.1
Cc1cccc(F)c1Nc1nc(Nc2cnn(C)c2)ncc1C(N)=O [Example 4-35, 4-[(2-fluoro-6-methylphenyl)amino]-2-[(1-methyl-1H-pyrazol-4-yl)amino]pyrimidine-5-carboxamide]	158
CS(=O)(=O)c1ccc(Nc2ncc(C(N)=O)c(Nc3cccc4c3CCNC4)n2)cc1 [Example 7-1, 2-{[4-(methylsulfonyl)phenyl]amino}-4-[(1,2,3,4-tetrahydroisoquinolin-5-yl)amino]pyrimidine-5-carboxamide]	0.66
COc1cc2c(cc1Nc1ncc(C(N)=O)c(Nc3ccccc3N3C(=O)OC[C@@H]3C)n1)CN(C)CC2 [Example 7-2, 2-[(6-methoxy-2-methyl-1,2,3,4-tetrahydroisoquinolin-7-yl)amino]-4-({2-[(4S)-4-methyl-2-oxo-1,3-oxazolidin-3-yl]phenyl}amino)pyrimidine-5-carboxamide]	0.15
COc1cc2c(cc1Nc1ncc(C(N)=O)c(Nc3cccc4nnc(C)cc34)n1)CN(C)CC2 [Example 7-6, 2-[(6-methoxy-2-methyl-1,2,3,4-tetrahydroisoquinolin-7-yl)amino]-4-[(3-methylcinnolin-5-yl)amino]pyrimidine-5-carboxamide]	70.5
NC(=O)c1cnc(Nc2cnn(CC3CC3)c2)nc1Nc1cccc2c1CCNC2 [Example 7-8, 2-{[1-(cyclopropylmethyl)-1H-pyrazol-4-yl]amino}-4-[(1,2,3,4-tetrahydroisoquinolin-5-yl)amino]pyrimidine-5-carboxamide]	1.48
COc1nn(C)cc1Nc1ncc(C(N)=O)c(Nc2cccc3c2CCNC3)n1 [Example 7-9, 2-[(3-methoxy-1-methyl-1H-pyrazol-4-yl)amino]-4-[(1,2,3,4-tetrahydroisoquinolin-5-yl)amino]pyrimidine-5-carboxamide]	1.17
COc1cc(N2CCNCC2)ccc1Nc1ncc(C(N)=O)c(Nc2ccccc2Br)n1 [Example 7-10, 4-[(2-bromophenyl)amino]-2-{[2-methoxy-4-(piperazin-1-yl)phenyl]amino}pyrimidine-5-carboxamide]	34.2
Cn1cc(Nc2ncc(C(N)=O)c(Nc3cccc4c3CCNC4)n2)c(=O)[nH]1 [Example 7-11, 2-[(1-methyl-3-oxo-2,3-dihydro-1H-pyrazol-4-yl)amino]-4-[(1,2,3,4-tetrahydroisoquinolin-5-yl)amino]pyrimidine-5-carboxamide]	111
Cn1cc(Nc2ncc(C(N)=O)c(Nc3cccc4c3CCNC4)n2)cn1 [Example 7-12, 2-[(1-methyl-1H-pyrazol-4-yl)amino]-4-[(1,2,3,4-tetrahydroisoquinolin-5-yl)amino]pyrimidine-5-carboxamide]	1.86
N#CC1(c2ccc(Nc3ncc(C(N)=O)c(Nc4cccc5c4CCNC5)n3)cc2)CC1 [Example 7-15, 2-{[4-(1-cyanocyclopropyl)phenyl]amino}-4-[(1,2,3,4-tetrahydroisoquinolin-5-yl)amino]pyrimidine-5-carboxamide]	0.13
NC(=O)c1cnc(Nc2ccc3c(c2)COCC3)nc1Nc1cccc2c1CCNC2 [Example 7-16, 2-[(3,4-dihydro-1H-2-benzopyran-7-yl)amino]-4-[(1,2,3,4-tetrahydroisoquinolin-5-yl)amino]pyrimidine-5-carboxamide]	0.14
